Results reported in paper PMC9179341, “Design of New Potent and Selective Thiophene-Based KV1.3 Inhibitors and Their Potential for Anticancer Activity” (Cancers, 2022).
“Also recorded” adds a separate entry of the source.

Assays:
Colo-357 cells = experiment: Cell proliferation (culture confluency, IncuCyte) in 2D culture, Colo-357; assay type: cell-based; settings: 100 µM, confluence by live cell imaging
Description: (§1) Cell lines Panc-1 (ACC 783) and Colo-357 (CVCL_0221) were obtained through the validated collection of the pHioniC consortium (MSC-ITN 813834). Both cell lines were grown in RPMI1640, supplemented with 1 mM sodium pyruvate and 1% Glutamax (all Gibco Thermo-Fisher, Waltham, MA USA) 10%FBS (BioChrom, Berlin, Germany), at 5% CO2 and 37 °C in a humidified atmosphere.
(§2) For cell proliferation assays, cells were seeded at a density of 10,000 cells/well in 96-well flat bottom culture plates (Corning, Kaiseslautern, Germany) and proliferation was measured through culture confluency using an IncuCyte device (Sartorius, Göttingen, Germany). Every hour, two phase contrast images per well were acquired, and a confluency mask was generated by training the analysis algorithm using representative images. Every image was then analyzed using the obtained parameters to determine culture confluency. Treatments were then added when cells reached a confluency of ~30% (Panc-1) or ~55% (Colo-357), and proliferation was determined for the following 60 h. Proliferation is reported as confluency increase with respect to the start of the treatment.

Panc-1 cells = experiment: Cell proliferation (culture confluency, IncuCyte) in 2D culture, Panc-1; assay type: cell-based; settings: 100 µM, confluence by live cell imaging
Description: as §1, §2

[1] = Turbidimetric solubility assay; assay type: physicochemical; settings: for solubility: pH 7.4, aqueous buffer, kinetic from dmso stock, phosphate-buffered saline, final 1% DMSO, read-out: Concentration at which compound was soluble (turbidimetric solubility test)
Description: For the phosphate-buffered saline, we dissolved 2.38 g of disodium hydrogen phosphate dodecahydrate, 0.19 g of potassium dihydrogen phosphate, and 8.0 g of sodium chloride in water and diluted it to 1000 mL with the same solvent. Then we adjusted the pH to 7.4. The stock DMSO solutions of the compounds were prepared at concentrations of 50 mM, 20 mM, 10 mM, and 1 mM. The final solutions (500 µM, 200 µM, 100 µM, and 10 µM) were prepared by adding 2 µL of the stock DMSO solution to 198 µL of phosphate-buffered saline. The absorbance (area scan) was measured at 620 nm for sample volume of 200 µL and the appearance of the solutions was checked by visual inspection.

KV1.3 = KV1.3 (Homo sapiens, UniProt P22001); experiment: KV1.3 inhibition, HiClamp on Xenopus laevis oocytes; assay type: cell-based; settings: Xenopus laevis oocytes (marked * in Table 2)
Description: Stage V–VI oocytes were isolated by partial ovariectomy from Xenopus laevis frogs (African clawed frogs). […] After anaesthetizing the frogs by a 15-min submersion in 0.1% tricaine methanesulfonate (amino benzoic acid ethyl ester; Merck, Kenilworth, NJ, USA), pH 7.0, the oocytes were collected. The isolated oocytes were then washed with a 1.5 mg/mL collagenase solution for 2 h to remove the follicle layer.
Ion channels (Kv1.x, Kv2.1, Kv4.2, Kv10.1) were expressed in Xenopus laevis oocytes by linearization of the plasmids and subsequent in vitro transcription using a commercial T7 or SP6 mMESSAGE mMACHINE transcription kit (Ambion, Carlsbad, California, USA). Defolliculated Xenopus oocytes were then injected with 20–50 nL of the cRNA at a concentration of 1 ng/nL using a micro-injector (Drummond Scientific1, Broomall, PA, USA). The oocytes were incubated in a solution containing (in mM): NaCl, 96; KCl, 2; CaCl2, 1.8; MgCl2, 2 and HEPES, 5 (pH 7.5), supplemented with 50 mg/L gentamycin sulfate and 90 mg/L theophylline.
Two-electrode voltage-clamp recordings were performed at room temperature (18–22 °C) using a Geneclamp 500 amplifier (Molecular Devices, San Jose, CA, USA) and pClamp data acquisition (Axon Instruments, Union City, CA, USA) and using an integrated digital TEVC amplifier controlled by HiClamp, an automated Voltage-Clamp Screening System (Multi Channel Systems MCS GmbH, Reutlingen, Germany). Whole-cell currents from oocytes were recorded 1–4 days after injection. The bath solution composition was ND96 (in mM): NaCl, 96; KCl, 2; CaCl2, 1.8; MgCl2, 2 and HEPES, 5 (pH 7.5). Voltage and current electrodes were filled with a 3 M solution of KCl in H2O. […] The elicited Kv1.x, Kv2.1, Kv4.2 and Kv10.1 currents were filtered at 0.5 kHz and sampled at 2 kHz using a four-pole low-pass Bessel filter. Leak subtraction was performed using a P/4 protocol.
For the electrophysiological analysis of the compounds, a number of protocols were applied from a holding potential of −90 mV. Currents for Kv1.x, Kv2.1, Kv4.2 and Kv10.1 were evoked by 1 s depolarizing pulses either to 0 mV or to a range of voltage steps between −80 mV and +40 mV. For the analysis of the data, only the inhibition at the 0 mV step was used. The concentration dependency of all compounds was assessed by measuring the current inhibition in the presence of increasing compound concentrations. […] From this stock solution, adequate dilutions with a maximum of 0.5% DMSO were made for testing.
All electrophysiological data (Figure S1) are presented as means ± S.E.M of n ≥ three independent experiments unless otherwise indicated. […] The Dunnett test and one-way ANOVA were performed to calculate the significance of the induced inhibition compared to the control.

[2] = 10 µM in PBS with 1 % final DMSO
[3] = 100 µM in PBS with 1 % final DMSO
[4] = 200 µM in PBS with 1 % final DMSO
[5] = 500 µM in PBS with 1 % final DMSO

KV1.3, sequence (P22001 whole entry): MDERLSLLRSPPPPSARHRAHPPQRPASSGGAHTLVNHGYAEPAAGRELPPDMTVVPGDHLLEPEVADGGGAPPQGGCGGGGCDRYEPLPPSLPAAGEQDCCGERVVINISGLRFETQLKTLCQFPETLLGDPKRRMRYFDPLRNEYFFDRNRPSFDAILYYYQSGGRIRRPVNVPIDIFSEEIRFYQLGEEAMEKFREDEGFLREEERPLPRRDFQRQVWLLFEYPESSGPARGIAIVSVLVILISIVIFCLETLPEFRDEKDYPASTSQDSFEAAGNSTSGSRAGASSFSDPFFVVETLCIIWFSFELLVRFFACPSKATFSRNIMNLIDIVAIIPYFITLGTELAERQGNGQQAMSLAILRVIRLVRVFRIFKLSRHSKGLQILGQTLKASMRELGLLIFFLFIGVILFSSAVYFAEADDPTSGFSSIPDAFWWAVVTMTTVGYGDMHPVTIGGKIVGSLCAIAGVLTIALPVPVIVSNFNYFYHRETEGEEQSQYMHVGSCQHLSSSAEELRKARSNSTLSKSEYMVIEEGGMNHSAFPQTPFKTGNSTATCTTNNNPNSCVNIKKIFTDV

Row | absorbance at 620 nm [1, 2] | absorbance at 620 nm [1, 3] | absorbance at 620 nm [1, 4] | absorbance at 620 nm [1, 5] | solubility [1] [µM] | IC50 (KV1.3) [nM] | Structure (SMILES) | Growth of Colo-357 cells (Colo-357 cells) | Growth (proliferation) inhibition of Panc-1 cells (Panc-1 cells)
1 | 0 | 0,003 | 0,003 | 0,014 | ≥ 500 | 1990 ± 610 | COc1ccccc1C(=O)NCC1(c2ccsc2)CCOCC1 [Compound 44] | not significantly affected; also recorded: unaffected | significantly inhibited; also recorded: moderate growth inhibition
2 |  |  |  |  |  | 1030 ± 30 | COc1ccccc1C(=O)NCC1(c2cccs2)CCOC1 (stereo not drawn) [Compound 14] | not significantly affected; also recorded: unaffected | significantly inhibited; also recorded: strong inhibition
3 | 0 | 0,003 | 0,005 | 0,077 | ≥ 200 | 1970 | COc1ccc(F)cc1C(=O)NCC1(c2ccccc2)CCOCC1 [Compound 37] | not significantly affected; also recorded: unaffected | significantly inhibited; also recorded: strong inhibition
4 | 0,01 | 0,002 | 0,003 | 0,011 | ≥ 500 | 1200 ± 20 | COc1ccccc1C(=O)NCC1(c2cccs2)CCOCC1 [Compound 43] | not significantly affected; also recorded: unaffected | significantly inhibited; also recorded: strong inhibition
